Laboratory results published in article PMC5560858, “A lectin receptor kinase as a potential sensor for extracellular nicotinamide adenine dinucleotide in Arabidopsis thaliana” (eLife, 2017).

Target: T1, LecRK-I.8 (lectin receptor kinase-I.8, At5g60280) (Arabidopsis thaliana, UniProt Q9LSR9)
T1 construct: gene LECRK18; extracellular lectin domain (amino acids 23 to 283) fused to GFP (eLecRK-I.8-GFP)
Assay: […]-NAD+ radioligand saturation binding to immunoprecipitated eLecRK-I.8-GFP; also competition, and binding to recombinant MBP-eLecRK-I.[…]

T1 sequence (Q9LSR9 23-283): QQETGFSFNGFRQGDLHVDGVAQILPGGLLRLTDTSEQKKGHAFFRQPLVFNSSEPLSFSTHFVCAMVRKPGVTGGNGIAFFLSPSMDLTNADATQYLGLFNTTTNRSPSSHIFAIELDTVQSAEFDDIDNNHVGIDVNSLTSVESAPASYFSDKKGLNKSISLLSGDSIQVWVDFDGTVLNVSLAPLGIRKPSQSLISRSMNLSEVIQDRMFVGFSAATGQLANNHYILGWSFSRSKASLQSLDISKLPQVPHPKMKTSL

NC(=O)c1ccc[n+]([C@@H]2O[C@H](COP(=O)([O-])OP(=O)(O)OC[C@H]3O[C@@H](n4cnc5c(N)ncnc54)[C@H](O)[C@@H]3O)[C@@H](O)[C@H]2O)c1 [NAD+]
Kd: 437 ± 105 nM
